Assay results: PubChem BioAssay AID248 (DTP/NCI, 2004)
Values joined by “and” are separate entries in the source; they are usually repeats but may differ in a detail not shown here. Equal entries are not always repeated. Inconclusive results and toxic doses are left out. No stated cut-off is given here; in the data, active means T/C of 150% or more; inactive means T/C below 125%.

Tested on: L1210 leukemia ip in BDF1 mice, survival T/C
Test: NCI In Vivo Anticancer Drug Screen. Data for tumor model L1210 Leukemia (intraperitoneal) in B6D2F1 (BDF1) mice
Details: endpoint: mean survival time, higher = longer survival
Procedure, shortened: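 Transplantable tumor model; survival measured in treated vs vehicle control mice. Value = treated/control.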

[1] = dose: 100.0 mg/kg/injection, schedule: Q04DX003 (ip), vehicle: Klucel (hydroxypropylcellulose) (HPC)
[2] = dose: 100.0 mg/kg/injection, schedule: Q01DX001 (ip), vehicle: carboxymethylcellulose (CMC)
[3] = dose: 200.0 mg/kg/injection, schedule: Q01DX001 (ip), vehicle: carboxymethylcellulose (CMC)
[4] = dose: 400.0 mg/kg/injection, schedule: Q01DX001 (ip), vehicle: carboxymethylcellulose (CMC)
[5] = dose: 100.0 mg/kg/injection, schedule: Q01DX009 (ip), vehicle: saline with Tween-80
[6] = dose: 200.0 mg/kg/injection, schedule: Q01DX009 (ip), vehicle: saline with Tween-80
[7] = dose: 400.0 mg/kg/injection, schedule: Q01DX009 (ip), vehicle: saline with Tween-80
[8] = dose: 100.0 mg/kg/injection, schedule: Q04DX002 (ip), vehicle: Klucel (hydroxypropylcellulose) (HPC)
[9] = dose: 200.0 mg/kg/injection, schedule: Q04DX002 (ip), vehicle: Klucel (hydroxypropylcellulose) (HPC)
[10] = dose: 400.0 mg/kg/injection, schedule: Q04DX002 (ip), vehicle: Klucel (hydroxypropylcellulose) (HPC)

Measured: T/C

CC1(C)N=C(N)N=C(N)N1c1cc(Cl)cc(CCCCc2ccc(S(=O)(=O)F)cc2)c1
inactive: dose: 25.0 mg/kg/injection, schedule: Q04DX003 (ip), vehicle: Klucel (hydroxypropylcellulose) (HPC) 109 % of control | dose: 50.0 mg/kg/injection, schedule: Q04DX003 (ip), vehicle: Klucel (hydroxypropylcellulose) (HPC) 112 % of control | [1] 107 % of control and 118 % of control

O=S(=O)(/C=C/c1ccccc1)c1ccc(F)cc1
inactive: dose: 100.0 mg/kg/injection, schedule: Q01DX001 (ip), vehicle: acetone 97 % of control | dose: 100.0 mg/kg/injection, schedule: Q01DX009 (ip), vehicle: acetone 88 % of control | dose: 200.0 mg/kg/injection, schedule: Q01DX001 (ip), vehicle: acetone 95 % of control | dose: 400.0 mg/kg/injection, schedule: Q01DX001 (ip), vehicle: acetone 95 % of control

Cc1cccnc1Nc1ncccc1C
inactive: dose: 50.0 mg/kg/injection, schedule: Q01DX009 (ip), vehicle: saline 100 % of control | dose: 100.0 mg/kg/injection, schedule: Q01DX009 (ip), vehicle: saline 96 % of control | dose: 200.0 mg/kg/injection, schedule: Q01DX009 (ip), vehicle: saline 103 % of control

O=C1NC(=O)C(CCI)(CCI)C(=O)N1
inactive: [2] 103 % of control | [3] 98 % of control | [4] 109 % of control

ClC(c1ccccc1)C(Cl)c1ccccc1 (configuration not stated)
inactive: dose: 50.0 mg/kg/injection, schedule: Q01DX001 (ip), vehicle: carboxymethylcellulose (CMC) 101 % of control | dose: 75.0 mg/kg/injection, schedule: Q04DX002 (ip), vehicle: Klucel (hydroxypropylcellulose) (HPC) 109 % of control | [2] 106 % of control | dose: 150.0 mg/kg/injection, schedule: Q04DX002 (ip), vehicle: Klucel (hydroxypropylcellulose) (HPC) 95 % of control | [3] 101 % of control | dose: 300.0 mg/kg/injection, schedule: Q04DX002 (ip), vehicle: Klucel (hydroxypropylcellulose) (HPC) 92 % of control | [4] 101 % of control

CC(C)(C)c1cc(C=C2C(=O)c3ccccc3C2=O)cc(C(C)(C)C)c1O
inactive: dose: 100.0 mg/kg/injection, schedule: Q04DX002 (ip), vehicle: saline with Tween-80 87 % of control | dose: 200.0 mg/kg/injection, schedule: Q04DX002 (ip), vehicle: saline with Tween-80 90 % of control | dose: 400.0 mg/kg/injection, schedule: Q04DX002 (ip), vehicle: saline with Tween-80 93 % of control

O=[N+]([O-])C(Cl)(Cl)C(Cl)(Cl)[N+](=O)[O-]
inactive: dose: 2.5 mg/kg/injection, schedule: Q01DX009 (ip), vehicle: other 97 % of control | dose: 2.5 mg/kg/injection, schedule: Q04DX003 (ip), vehicle: other 100 % of control | dose: 5.0 mg/kg/injection, schedule: Q01DX001 (ip), vehicle: saline 94 % of control | dose: 5.0 mg/kg/injection, schedule: Q01DX009 (ip), vehicle: other 95 % of control | dose: 5.0 mg/kg/injection, schedule: Q04DX003 (ip), vehicle: other 102 % of control | dose: 10.0 mg/kg/injection, schedule: Q01DX001 (ip), vehicle: saline 94 % of control | dose: 10.0 mg/kg/injection, schedule: Q01DX009 (ip), vehicle: other 90 % of control | dose: 10.0 mg/kg/injection, schedule: Q04DX003 (ip), vehicle: other 88 % of control | dose: 20.0 mg/kg/injection, schedule: Q01DX001 (ip), vehicle: saline 92 % of control | dose: 40.0 mg/kg/injection, schedule: Q01DX001 (ip), vehicle: saline 86 % of control | dose: 80.0 mg/kg/injection, schedule: Q01DX001 (ip), vehicle: saline 100 % of control

O=C(Nc1ccccc1)c1ccc2c(c1)C(=O)OC2=O
inactive: [5] 102 % of control | [6] 94 % of control | [7] 89 % of control

COC(=O)C(NC(=O)COc1ccccc1[N+](=O)[O-])C(=O)OC
inactive: dose: 100.0 mg/kg/injection, schedule: Q01DX001 (ip), vehicle: saline with Tween-80 100 % of control | dose: 200.0 mg/kg/injection, schedule: Q01DX001 (ip), vehicle: saline with Tween-80 95 % of control | dose: 400.0 mg/kg/injection, schedule: Q01DX001 (ip), vehicle: saline with Tween-80 97 % of control

CCOC(=O)C(=Cc1cccc2ccccc12)C(=O)OCC
inactive: dose: 100.0 mg/kg/injection, schedule: Q01DX009 (ip), vehicle: Klucel (hydroxypropylcellulose) (HPC) 98 % of control | [1] 101 % of control | dose: 200.0 mg/kg/injection, schedule: Q01DX009 (ip), vehicle: Klucel (hydroxypropylcellulose) (HPC) 105 % of control | dose: 200.0 mg/kg/injection, schedule: Q04DX003 (ip), vehicle: Klucel (hydroxypropylcellulose) (HPC) 98 % of control | dose: 400.0 mg/kg/injection, schedule: Q01DX009 (ip), vehicle: Klucel (hydroxypropylcellulose) (HPC) 93 % of control | dose: 400.0 mg/kg/injection, schedule: Q04DX003 (ip), vehicle: Klucel (hydroxypropylcellulose) (HPC) 92 % of control

C#CC(N)=O
inactive: dose: 3.0 mg/kg/injection, schedule: Q01DX009 (ip), vehicle: saline 100 % of control | dose: 6.0 mg/kg/injection, schedule: Q01DX009 (ip), vehicle: saline 96 % of control | dose: 12.0 mg/kg/injection, schedule: Q01DX009 (ip), vehicle: saline 94 % of control | dose: 25.0 mg/kg/injection, schedule: Q04DX003 (ip), vehicle: saline 107 % of control | dose: 50.0 mg/kg/injection, schedule: Q04DX003 (ip), vehicle: saline 106 % of control | dose: 75.0 mg/kg/injection, schedule: Q01DX001 (ip), vehicle: saline 107 % of control

Cc1ccc(S(=O)(=O)OC(C(F)(F)F)C(F)(F)F)cc1
inactive: [8] 97 % of control | [9] 90 % of control | [10] 101 % of control

O=C(O)c1cc(Br)c(Br)s1
inactive: dose: 50.0 mg/kg/injection, schedule: Q01DX009 (ip), vehicle: saline with Tween-80 98 % of control | [5] 105 % of control

CCCCNC(=O)OCc1cnc(C)n1Cc1ccccc1
inactive: dose: 25.0 mg/kg/injection, schedule: Q01DX009 (ip), vehicle: other 93 % of control and 107 % of control | [2] 104 % of control | [8] 94 % of control | dose: 100.0 mg/kg/injection, schedule: Q04DX002 (ip), vehicle: other 96 % of control and 105 % of control | [3] 108 % of control | [9] 98 % of control | dose: 200.0 mg/kg/injection, schedule: Q04DX002 (ip), vehicle: other 93 % of control and 86 % of control | [10] 94 % of control

O=C1C(Cc2ccccc2)C(=O)N(Cc2ccccc2)C(=O)N1Cc1ccccc1
inactive: [2] 88 % of control | [3] 90 % of control | [4] 88 % of control

CCOC(=S)Nc1ccc(S(=O)(=O)c2ccc(NC(=S)OCC)cc2)cc1
inactive: dose: 100.0 mg/kg/injection, schedule: Q01DX001 (ip), vehicle: saline 96 % of control | dose: 200.0 mg/kg/injection, schedule: Q01DX001 (ip), vehicle: saline 92 % of control | dose: 400.0 mg/kg/injection, schedule: Q01DX001 (ip), vehicle: saline 98 % of control

COc1cc(Br)c(CC2=[N+](C)CCc3cc(OC)c(OCc4ccccc4)cc32)cc1OC
inactive: dose: 100.0 mg/kg/injection, schedule: Q04DX003 (ip), vehicle: saline with Tween-80 98 % of control | dose: 200.0 mg/kg/injection, schedule: Q04DX003 (ip), vehicle: saline with Tween-80 101 % of control | dose: 400.0 mg/kg/injection, schedule: Q04DX003 (ip), vehicle: saline with Tween-80 101 % of control

CC(=O)OC1CCC2(C)C(CCC3C2C(=O)C(OC(C)=O)C2(C)C3CC3OC4(CCC(C)CO4)C(C)C32)C1 (configuration not stated)
inactive: [5] 90 % of control | [6] 95 % of control | [7] 101 % of control
